From ChEMBL document CHEMBL5143508, “Design, synthesis and biological evaluation of novel o-aminobenzamide derivatives as potential anti-gastric cancer agents in vitro and in vivo” (Eur J Med Chem, 2022)
pIC50: −log10 of the molar value. Where “and” joins values, the source holds several entries; their conditions need not be identical. Equal values may be shown once.

Legend:
SGC-7901 = assay: cells; type: functional, cell-based; settings: Homo sapiens, SGC-7901, 72 h
Description: Cytotoxicity against human SGC-7901 cells assessed as inhibition of cell growth incubated for 72 hrs by MTT assay

AGS = assay: cells; type: functional, cell-based; settings: Homo sapiens, 72 h
Description: Cytotoxicity against human AGS cells assessed as inhibition of cell growth incubated for 72 hrs by MTT assay

BGC-823 = assay: cells; type: functional, cell-based; settings: Homo sapiens, BGC-823, 72 h
Description: Cytotoxicity against human BGC-823 cells assessed as inhibition of cell growth incubated for 72 hrs by MTT assay

in vitro [1] = settings: human, GES1 cells
Description: Cytotoxicity against human GES1 cells assessed as inhibition of cell growth incubated for 72 hrs by MTT assay

MGC-803 = assay: cells; type: functional, cell-based; settings: Homo sapiens, MGC-803, 72 h
Description: Cytotoxicity against human MGC-803 cells assessed as inhibition of cell growth incubated for 72 hrs by MTT assay

HGC-27 [2] = assay: cells; type: functional, cell-based; settings: Homo sapiens, HGC-27, 72 h
Description: Cytotoxicity against human HGC-27 cells assessed as inhibition of cell growth incubated for 72 hrs by MTT assay

in vitro [3] = settings: human, WI-38 cells
Description: Cytotoxicity against human WI-38 cells assessed as inhibition of cell growth incubated for 72 hrs by MTT assay

[4] = Toxicity in BALB/c mouse xenografted with human HGC-27 cells assessed as platelet level at 150 mg/kg, po bid for 19 days; type: organism-based; settings: in vivo, 456 h, time 19 day
[5] = Toxicity in BALB/c mouse xenografted with human HGC-27 cells assessed as lymphocyte level at 150 mg/kg, po bid for 19 days; type: organism-based; settings: in vivo, 456 h, time 19 day
[6] = Toxicity in BALB/c mouse xenografted with human HGC-27 cells assessed as RBC level at 150 mg/kg, po bid for 19 days; type: organism-based, Erythrocyte; settings: in vivo, 456 h, time 19 day
[7] = Toxicity in BALB/c mouse xenografted with human HGC-27 cells assessed as red blood cell distribution width at 150 mg/kg, po bid for 19 days; type: organism-based; settings: in vivo, 456 h, time 19 day
[8] = Toxicity in BALB/c mouse xenografted with human HGC-27 cells assessed as granulocyte level at 150 mg/kg, po bid for 19 days; type: organism-based; settings: in vivo, 456 h, time 19 day
[9] = Toxicity in BALB/c mouse xenografted with human HGC-27 cells assessed as monocyte level at 150 mg/kg, po bid for 19 days; type: organism-based; settings: in vivo, 456 h, time 19 day
[10] = Toxicity in BALB/c mouse xenografted with human HGC-27 cells assessed as hematocrit level at 150 mg/kg, po bid for 19 days; type: organism-based; settings: in vivo, 456 h, time 19 day
[11] = Toxicity in BALB/c mouse xenografted with human HGC-27 cells assessed as mean platelet volume at 150 mg/kg, po bid for 19 days; type: organism-based; settings: in vivo, 456 h, time 19 day
[12] = Toxicity in BALB/c mouse xenografted with human HGC-27 cells assessed as platelet distribution width at 150 mg/kg, po bid for 19 days; type: organism-based; settings: in vivo, 456 h, time 19 day
HGC-27 [13] = assay: Antitumor activity against human HGC-27 cells xenografted in BALB/c mouse assessed as tumor growth inhibition at 150 mg/kg, po bid administered for 19 days; type: functional; settings: HGC-27, 456 h, time 19 day, read-out: TGI
[14] = Toxicity in BALB/c mouse xenografted with human HGC-27 cells assessed as mean corpuscular volume at 150 mg/kg, po bid for 19 days; type: organism-based; settings: in vivo, 456 h, time 19 day
HGC-27 [15] = assay: Antiproliferative activity against human HGC-27 cells measured after 24 hrs by […]; type: functional, cell-based; settings: HGC-27, 24 h

SMILES	pIC50 (SGC-7901)	pIC50 (AGS)	pIC50 (BGC-823)	IC50 at 72 h (in vitro [1])	pIC50 (MGC-803)	pIC50 (HGC-27 [2])	IC50 at 72 h (in vitro [3])	also measured
Cc1ccc(C(=O)Nc2ccc(CNC(=O)OCc3cccnc3)cc2)c(N2CCCC2)c1	4.12	< 4.00	< 4.00	> 100 µM	< 4.00	5.73	> 100 µM	
CCCCCOC(=O)Nc1nc(=O)n([C@@H]2O[C@H](C)[C@@H](O)[C@H]2O)cc1F [CAPECITABINE]								Activity [4]: 799 10^9/L; Activity [5]: 6.1 10^9/L and 7.45%; Activity [6]: 10.26 10^12/L; Activity [7]: 15.63%; Activity [8]: 73.83 10^9/L and 90.38%; Activity [9]: 1.75 10^9/L and 2.18%; Activity [10]: 55.25%; Activity [11]: 6.95 fL; Activity [12]: 17.93; inhibition in vivo at 150 mg/kg (HGC-27 [13]): 29.9%; Activity [14]: 53.73 fL
O=C(NCc1ccc(NC(=O)c2cc(-c3ccccc3)ccc2N2CCCC2)cc1)OCc1cccnc1	< 4.00	< 4.00	< 4.00	> 100 µM	4.98	5.36	> 100 µM	
C#Cc1ccc(N2CCCC2)c(C(=O)Nc2ccc(CNC(=O)OCc3cccnc3)cc2)c1								pIC50 (HGC-27 [15]): 5.61
O=C(NCc1ccc(NC(=O)c2ccc(F)cc2N2CCCC2)cc1)OCc1cccnc1	4.25	< 4.00	4.13	> 100 µM	4.28	5.74	> 100 µM	
O=C(NCc1ccc(NC(=O)c2cccc(F)c2N2CCCC2)cc1)OCc1cccnc1	< 4.00	< 4.00	< 4.00	> 100 µM	< 4.00	5.69	> 100 µM	
O=C(NCc1ccc(NC(=O)c2cc(C(F)(F)F)ccc2N2CCCC2)cc1)OCc1cccnc1	< 4.00	< 4.00	< 4.00	> 100 µM	4.38	6.10	> 100 µM	
C#Cc1cccc(C(=O)Nc2ccc(CNC(=O)OCc3cccnc3)cc2)c1								pIC50 (HGC-27 [15]): < 4.00
O=C(NCc1ccc(NC(=O)c2cc(Br)ccc2N2CCCC2)cc1)OCc1cccnc1	< 4.00	< 4.00	< 4.00	> 100 µM	4.34	6.19	> 100 µM	
Cc1ccc(N2CCCC2)c(C(=O)Nc2ccc(CNC(=O)OCc3cccnc3)cc2)c1	4.18	4.61	< 4.00	> 100 µM	4.72	5.78	40.6 µM	
COc1ccc(N2CCCC2)c(C(=O)Nc2ccc(CNC(=O)OCc3cccnc3)cc2)c1	4.33	4.59	< 4.00	> 100 µM	4.07	3.86	35.6 µM	
Nc1ccccc1NC(=O)c1ccc(CNC(=O)OCc2cccnc2)cc1 [ENTINOSTAT]	< 3.70	4.57	4.57	60.2 µM	4.23	4.73		
O=c1[nH]cc(F)c(=O)[nH]1 [FLUOROURACIL]	4.16	4.63	4.85	38.5 µM	4.20	4.56		
Cc1cccc(C(=O)Nc2ccc(CNC(=O)OCc3cccnc3)cc2)c1N1CCCC1	< 4.00	< 4.00	< 4.00	> 100 µM	< 4.00	5.99	> 100 µM	
O=C(NCc1ccc(NC(=O)c2cc(Cl)ccc2N2CCCC2)cc1)OCc1cccnc1	< 4.00	< 4.00	< 4.00	> 100 µM	4.26	6.12	> 100 µM	
